The values below come from patent US12065442B2, “Tropomyosin receptor kinase (TRK) degradation compounds and methods of use” (Cullgen (Shanghai), Inc., priority 2018, dated 2024).

The assay has as its system KM12 cells. Description: Cell viability assay (CellTiter-Glo) in KM12 cells. The assay is classed as cell-based. As to conditions: Homo sapiens, 72 h; Table 2; KM12 cell viability, CellTiter-Glo, 3 days; read-out: IC50. A general note: In ATP-based viability assays light output follows the ATP content of the culture.
One may read the IC50 as the concentration needed to halve the response being measured. For `Cc1ncsc1-c1ccc(CNC(=O)[C@@H]2C[C@@H](O)CN2C(=O)[C@@H](NC(=O)CCCCC(=O)N2CCN(c3cccc(-c4cnc5ccc(N6CCC[C@@H]6c6cccc(F)c6)nn45)n3)CC2)C(C)(C)C)cc1` [CPD-001, (2S,4R)-1-((S)-2-(6-(4-(6-(6-((R)-2-(3-Fluorophenyl)pyrrolidin-1-yl)imidazo[1,2-b]pyridazin-3-yl)pyridin-2-yl)piperazin-1-yl)-6-oxohexanamido)-3,3-dimethylbutanoyl)-4-hydroxy-N-(4-(4-methylthiazol-5-yl)benzyl)pyrrolidine-2-carboxamide], the IC50 was more than 1 µM. As for `Cc1ncsc1-c1ccc(CNC(=O)[C@@H]2C[C@@H](O)CN2C(=O)[C@@H](NC(=O)COCCOCC(=O)N2CCN(c3cccc(-c4cnc5ccc(N6CCC[C@@H]6c6cccc(F)c6)nn45)n3)CC2)C(C)(C)C)cc1` [CPD-002, (2S,4R)-1-((S)-2-(2-(2-(2-(4-(6-(6-((R)-2-(3-Fluorophenyl)pyrrolidin-1-yl)imidazo[1,2-b]pyridazin-3-yl)pyridin-2-yl)piperazin-1-yl)-2-oxoethoxy)ethoxy)acetamido)-3,3-dimethylbutanoyl)-4-hydroxy-N-(4-(4-methylthiazol-5-yl)benzyl)pyrrolidine-2-carboxamide], the IC50 is more than 1 µM.

In the case of `Cc1ncsc1-c1ccc(CNC(=O)[C@@H]2C[C@@H](O)CN2C(=O)[C@@H](NC(=O)COCCOCCOCCOCCOCC(=O)N2CCN(c3cccc(-c4cnc5ccc(N6CCC[C@@H]6c6cccc(F)c6)nn45)n3)CC2)C(C)(C)C)cc1` [CPD-003, (2S,4R)-1-((S)-2-(tert-butyl)-20-(4-(6-(6-((R)-2-(3-Fluorophenyl)pyrrolidin-1-yl)imidazo[1,2-b]pyridazin-3-yl)pyridin-2-yl)piperazin-1-yl)-4,20-dioxo-6,9,12,15,18-pentaoxa-3-azaicosanoyl)-4-hydroxy-N-(4-(4-methylthiazol-5-yl)benzyl)pyrrolidine-2-carboxamide], the IC50 is more than 1 µM. Turning to `Cc1ncsc1-c1ccc(CNC(=O)[C@@H]2C[C@@H](O)CN2C(=O)[C@@H](NC(=O)CCCCCC(=O)N2CCN(c3cccc(-c4cnc5ccc(N6CCC[C@@H]6c6cccc(F)c6)nn45)n3)CC2)C(C)(C)C)cc1` [CPD-004, (2S,4R)-1-((S)-2-(7-(4-(6-(6-((R)-2-(3-Fluorophenyl)pyrrolidin-1-yl)imidazo[1,2-b]pyridazin-3-yl)pyridin-2-yl)piperazin-1-yl)-7-oxoheptanamido)-3,3-dimethylbutanoyl)-4-hydroxy-N-(4-(4-methylthiazol-5-yl)benzyl)pyrrolidine-2-carboxamide], the IC50 came out at 0.176 µM. As for `Cc1ncsc1-c1ccc(CNC(=O)[C@@H]2C[C@@H](O)CN2C(=O)[C@@H](NC(=O)CCOCCOCCOCCOCCOCCC(=O)N2CCN(c3cccc(-c4cnc5ccc(N6CCC[C@@H]6c6cccc(F)c6)nn45)n3)CC2)C(C)(C)C)cc1` [CPD-005, (2S,4R)-1-((S)-2-(tert-butyl)-22-(4-(6-(6-((R)-2-(3-Fluorophenyl)pyrrolidin-1-yl)imidazo[1,2-b]pyridazin-3-yl)pyridin-2-yl)piperazin-1-yl)-4,22-dioxo-7,10,13,16,19-pentaoxa-3-azadocosanoyl)-4-hydroxy-N-(4-(4-methylthiazol-5-yl)benzyl)pyrrolidine-2-carboxamide], the IC50 was more than 1 µM.

`Cc1ncsc1-c1ccc(CNC(=O)[C@@H]2C[C@@H](O)CN2C(=O)[C@@H](NC(=O)CCC(=O)N2CCN(c3cccc(-c4cnc5ccc(N6CCC[C@@H]6c6cccc(F)c6)nn45)n3)CC2)C(C)(C)C)cc1` [CPD-006, (2S,4R)-1-((S)-2-(4-(4-(6-(6-((R)-2-(3-Fluorophenyl)pyrrolidin-1-yl)imidazo[1,2-b]pyridazin-3-yl)pyridin-2-yl)piperazin-1-yl)-4-oxobutanamido)-3,3-dimethylbutanoyl)-4-hydroxy-N-(4-(4-methylthiazol-5-yl)benzyl)pyrrolidine-2-carboxamide]: the IC50 is 0.5 µM.
